Where a name gives a salt, the structure may show the parent alone.
Key:
panelists = assay: Three-member panel rating (0-9 scale) of difference in sweetness due to calcium at <=200 ppm; type: in vivo, human; parameters: key: 0 = none; 1 = trace; 2 = faint; 3 = slight; 4 = mild; 5 = moderate; 6 = definite; 7 = strong; 8 = very strong; 9 = extreme; conditions: 20 ppm monatin in water, vs control without calcium
Method: The samples in Table 5 were prepared by adding 20 ppm of monatin to water in combination with an amount of calcium ranging between 12.5 ppm and 200 ppm. A control sample having 20 ppm of monatin and no calcium was also used. The monatin was in the R,R, form and prepared through a biosynthetic pathway as disclosed in U.S. Patent Publication No. 2005/282260. A three-member panel was used to evaluate sweetness, but instead of quantifying the sample in terms of sweetness equivalency (SEV), the panelists assigned the sample a number between 0 and 9 (see description of scale under Table 5).

[1] = Sweetness match of monatin-sweetened vanilla ice cream to 13% sucrose target; type: in vivo
Method: A vanilla ice cream sweetened with about 13% sucrose was prepared by conventional methods common to one skilled in the art of ice cream manufacturing to serve as a sweetness target. Then a set of seven (7) ice cream samples were sweetened with R,R-monatin monopotassium salt using the ingredients listed in Table 13. The amount of monatin in the seven samples was about 35 ppm, about 40 ppm, about 45 ppm, about 50 ppm, about 55 ppm, about 60 ppm and about 70 ppm. Each of the seven samples of monatin-sweetened ice cream were compared to the target ice cream sample containing 13% sucrose. The monatin-sweetened ice cream that most closely matched the sweetness of the target sucrose sample was chosen.

[2] = Sweetness match of monatin-sweetened chocolate milk to 10% sucrose target; type: in vivo
Method: A chocolate milk composition sweetened with 42 DE high fructose corn syrup (HFCS) to about 10% sucrose was prepared by conventional methods common to one skilled in the art of flavored milk manufacturing to serve as a sweetness target. The amount of monatin in the five samples was about 25 ppm, about 30 ppm, about 35 ppm, about 40 ppm and about 45 ppm. Each of the five samples of monatin-sweetened milk were compared to the target milk sample containing 10% sucrose. The monatin-sweetened milk that most closely matched the sweetness of the target sucrose sample was chosen.

NC(CC(O)(Cc1c[nH]c2ccccc12)C(=O)O)C(=O)O (stereo not drawn) [R,R-Monatin, 2R,4R-Monatin mono potassium salt]
Difference in Sweetness Due to Calcium (panelists; calcium 12.5 ppm): 1 | Difference in Sweetness Due to Calcium (panelists; calcium 25 ppm): 3 | Difference in Sweetness Due to Calcium (panelists; calcium 50 ppm): 4 | Difference in Sweetness Due to Calcium (panelists; calcium 100 ppm): 5 | Difference in Sweetness Due to Calcium (panelists; calcium 200 ppm): 6 | monatin concentration that most closely matched the sweetness of ice cream sweetened to 13% sucrose [1]: about 45 ppm | times as sweet as sucrose [1]: about 2800 times | monatin concentration that most closely matched the sweetness of milk sweetened to 10% sucrose [2]: about 35 ppm | times as sweet as sucrose [2]: about 2800 times
